Laboratory results taken from PMC8121805, “Discovery of first-in-class inhibitors of ASH1L histone methyltransferase with anti-leukemic activity” (Nature Communications, 2021).
Values joined by “and” are separate entries in the source; they are usually repeats but may differ in a detail not shown here. Equal entries are not always repeated. “Also recorded” adds a separate entry of the source.

What was measured:
MV4;11 cells = test: RNA-seq global gene expression; type: cell-based, human
Description: Total RNA was prepared from cells collected after 7 days of treatment using RNeasy Mini Kit (74106, Qiagen). 2 µg of total RNA for each sample, as quantified using Nanodrop 2000 UV-Vis spectrophotometer, was submitted to the Next-Generation Sequencing Services of the University of Michigan for RNA Sequencing on the Illumina NovaSeq (S4) Sequencer. ERCC RNA Spike-In Mix (4456740, Invitrogen™) was provided to control for variability in RNA expression.
For analysis of RNA-seq data, Fastq generation was performed using Illumina’s bcl2fastq2 software (v2.17). The cutadapt [https://cutadapt.readthedocs.org/en/stable/] and FastQC [http://www.bioinformatics.babraham.ac.uk/projects/fastqc/] tools wrapped in Trim Galore [http://www.bioinformatics.babraham.ac.uk/projects/trim_galore/] were used to trim low quality bases (Q < 20) and adapter for raw sequences. Reads with length <20 bp were removed after trimming. […] Duplicated reads for pair-end data were removed by SAMtools (v1.5)[41]. Aligned reads were assembled using Cufflinks (v2.2.1) and assembled transcriptome catalog was used as an input for Cuffdiff2[42] to determine gene expression levels (FPKM, Fragments Per Kilobase per Million mapped reads) and differential expression between conditions using default options. Genes with p < 0.05 and fold-change >2 up or down were considered as differentially expressing genes to prepare the Volcano plot, which was generated using the “ggplot2” R package. Gene set analysis was performed and enrichment plots were generated using the “fgsea” package, with the test statistic generated by Cuffdiff2 used to rank genes for gene set enrichment analysis. Fgsea was run using the C2, C5, and C6 curated datasets from MSigDB[44]. Heatmaps for the top 20 ranked genes in the Leading Edge from a given enrichment analysis were generated with the “gplots” package [https://cran.r-project.org/web/packages/gplots/index.html].

[1] = tested on: luciferase-expressing MV4;11 cells in NSG mice; test: MV4;11 xenotransplantation bioimaging model (bioluminescence); type: in vivo, mouse; conditions: for average radiance: individual mice, 30 mg/kg q.d. i.p.
[2] = tested on: MV4;11 leukemic blasts (human CD45+ cells) in NSG mice; test: Flow cytometry of hCD45+ cells in spleen and peripheral blood; type: in vivo, mouse
Description: Red blood cells were lysed with ACK lysis buffer (10-548E, Lonza). Up to 100,000 cells were washed in PBS (with 1% FBS) and stained with the anti–human CD45-BV421 antibody (563879, HI30, BD Biosciences) at 1:50 dilution for 30 min.

[3] = Effect on normal hematopoiesis: flow cytometry of myeloid, B- and T-cells in blood; type: in vivo
From the text: width, MPV – Mean platelet volume). n = 9 mice / group. Mean +/- SD. b) Flow cytometry analysis […]
assess the effect on myeloid, B- and T-cells. Statistical significance calculated us ing unpaired 2-tailed t-test. n = 9 mice / group. Mean +/- SD. ns - not significant. (c) Representative gating strategy corresponding to the Supplementary Figure 12b for quantification of myeloid, B- and T-cells in blood samples of mice treated with vehicle or AS-99. SSC-A – side scatter area; FSC-A – forward scatter area; FSC-H – forward scatter height.

DOT1L = DOT1L (Homo sapiens, UniProt Q8TEK3); test: HMT selectivity panel; conditions: 50 µM compound
Description: (§1) mM DTT and 0.01% Triton X-100 was used in experiments containing core histone.
experiments containing nucleosome.
G9a 5 core histone 0.05 mg/mL 1
GLP 5 core histone 0.05 mg/mL 1

GLP = GLP (Homo sapiens, UniProt Q9H9B1); test: HMT selectivity panel; conditions: 50 µM compound
Description: as §1
experiments containing nucleosome.
G9a 5 core histone 0.05 mg/mL 1
GLP 5 core histone 0.05 mg/mL 1

NSD1 = NSD1 (Homo sapiens, UniProt Q96L73); test: HMT selectivity panel; conditions: NSD1, 50 µM compound
From the text: as §1

NSD2 = NSD2 (Homo sapiens, UniProt O96028); test: HMT selectivity panel; conditions: NSD2, 50 µM compound
From the text: as §1

NSD3 = NSD3 (Homo sapiens, UniProt Q9BZ95); test: HMT selectivity panel; conditions: NSD3, 50 µM compound
From the text: as §1

PRMT1 = PRMT1 (Homo sapiens, UniProt Q99873); test: HMT selectivity panel; conditions: PRMT1, 50 µM compound
From the text: as §1

PRMT6 = PRMT6 (Homo sapiens, UniProt Q96LA8); test: HMT selectivity panel; conditions: PRMT6, 50 µM compound
From the text: as §1

SETD2 = SETD2 (Homo sapiens, UniProt Q9BYW2); test: HMT selectivity panel; conditions: SETD2, 50 µM compound
From the text: (§2) Assay conditions for selectivity experiments with a panel of histone
as §1

SMYD2 = SMYD2 (Homo sapiens, UniProt Q9NRG4); test: HMT selectivity panel; conditions: SMYD2, 50 µM compound
From the text: as §2, §1

SUV39H2 = SUV39H2 (Homo sapiens, UniProt Q9H5I1); test: HMT selectivity panel; conditions: SUV39H2, 50 µM compound
From the text: as §2, §1

[4] = tested on: panel of diverse set of 30 kinases; test: Profiling with kinases; conditions: 25 µM, 1 h incubation
From the text: This study was outsourced to the Contract Research Organization.

[5] = tested on: human CD34+ cells from cord blood; test: Colony-forming assay with normal hematopoietic progenitor cells; conditions: 7 days
Description: The experiment was performed twice. […] Mean ± SD, n = 3 biological replicates. […] Two independent experiments were performed in triplicates. Representative graphs are shown. *P < 0.05; **P < 0.01; ****P < 0.0001; NS not significant.

[6] = RNA-seq, MV4;11, 3 µM, seven days
[7] = individual mice, after last day of treatment, 30 mg/kg q.d. i.p., 30 mg/kg
[8] = Fig S12b, individual mice, AS-99 group
[9] = normal mice, 30 mg/kg, i.p., q.d., 14 days

NSD3, sequence (Q9BZ95 whole entry, species assumed): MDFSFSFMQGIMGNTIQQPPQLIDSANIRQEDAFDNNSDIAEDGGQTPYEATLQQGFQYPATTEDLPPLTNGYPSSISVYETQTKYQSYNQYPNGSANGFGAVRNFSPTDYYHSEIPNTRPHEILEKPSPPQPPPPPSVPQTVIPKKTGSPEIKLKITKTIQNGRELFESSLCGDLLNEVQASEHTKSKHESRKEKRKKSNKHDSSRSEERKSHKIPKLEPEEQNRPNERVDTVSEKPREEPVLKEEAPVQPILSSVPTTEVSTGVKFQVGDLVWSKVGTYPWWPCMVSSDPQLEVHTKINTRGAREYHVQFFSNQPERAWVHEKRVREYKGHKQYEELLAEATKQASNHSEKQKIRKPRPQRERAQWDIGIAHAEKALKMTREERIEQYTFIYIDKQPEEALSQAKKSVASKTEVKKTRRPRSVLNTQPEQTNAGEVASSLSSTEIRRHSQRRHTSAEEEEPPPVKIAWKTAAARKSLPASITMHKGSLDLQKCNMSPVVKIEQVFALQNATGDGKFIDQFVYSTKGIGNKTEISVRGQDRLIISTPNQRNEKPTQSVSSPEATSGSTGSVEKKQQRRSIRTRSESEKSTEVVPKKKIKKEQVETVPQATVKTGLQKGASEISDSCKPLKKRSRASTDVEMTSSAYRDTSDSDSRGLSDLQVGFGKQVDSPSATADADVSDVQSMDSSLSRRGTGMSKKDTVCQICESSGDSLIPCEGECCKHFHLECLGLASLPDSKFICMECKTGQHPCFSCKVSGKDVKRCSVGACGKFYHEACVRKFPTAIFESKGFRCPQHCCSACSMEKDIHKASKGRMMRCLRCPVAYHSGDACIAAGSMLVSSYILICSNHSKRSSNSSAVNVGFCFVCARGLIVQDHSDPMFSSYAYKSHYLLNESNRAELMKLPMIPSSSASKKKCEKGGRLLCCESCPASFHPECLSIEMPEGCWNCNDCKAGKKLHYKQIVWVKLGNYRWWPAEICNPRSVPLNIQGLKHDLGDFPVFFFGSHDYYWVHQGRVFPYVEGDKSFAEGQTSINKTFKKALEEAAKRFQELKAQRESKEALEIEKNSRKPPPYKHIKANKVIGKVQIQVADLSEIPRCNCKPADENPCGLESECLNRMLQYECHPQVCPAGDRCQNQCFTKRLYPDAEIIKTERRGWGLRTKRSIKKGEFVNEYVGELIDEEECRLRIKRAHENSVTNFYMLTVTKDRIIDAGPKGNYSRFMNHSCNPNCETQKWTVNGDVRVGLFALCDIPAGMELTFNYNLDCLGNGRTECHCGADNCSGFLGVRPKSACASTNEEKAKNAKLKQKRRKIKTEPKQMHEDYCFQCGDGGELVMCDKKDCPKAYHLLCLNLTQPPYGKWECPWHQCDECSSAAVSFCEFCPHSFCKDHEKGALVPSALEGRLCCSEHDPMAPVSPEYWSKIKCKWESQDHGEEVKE
SMYD2, sequence (Q9NRG4 whole entry, species assumed): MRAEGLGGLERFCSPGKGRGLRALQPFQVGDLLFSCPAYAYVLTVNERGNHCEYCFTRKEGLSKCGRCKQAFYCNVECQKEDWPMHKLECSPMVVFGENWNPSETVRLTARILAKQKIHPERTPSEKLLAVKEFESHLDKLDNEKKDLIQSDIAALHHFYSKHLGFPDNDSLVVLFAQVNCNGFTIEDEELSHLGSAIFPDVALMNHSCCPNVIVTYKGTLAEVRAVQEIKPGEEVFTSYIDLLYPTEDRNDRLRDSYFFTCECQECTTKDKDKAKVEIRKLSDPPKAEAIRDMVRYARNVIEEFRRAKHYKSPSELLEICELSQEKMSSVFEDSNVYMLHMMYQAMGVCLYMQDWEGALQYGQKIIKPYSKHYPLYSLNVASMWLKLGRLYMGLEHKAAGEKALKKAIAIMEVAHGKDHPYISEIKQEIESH
DOT1L, sequence (Q8TEK3 whole entry, species assumed): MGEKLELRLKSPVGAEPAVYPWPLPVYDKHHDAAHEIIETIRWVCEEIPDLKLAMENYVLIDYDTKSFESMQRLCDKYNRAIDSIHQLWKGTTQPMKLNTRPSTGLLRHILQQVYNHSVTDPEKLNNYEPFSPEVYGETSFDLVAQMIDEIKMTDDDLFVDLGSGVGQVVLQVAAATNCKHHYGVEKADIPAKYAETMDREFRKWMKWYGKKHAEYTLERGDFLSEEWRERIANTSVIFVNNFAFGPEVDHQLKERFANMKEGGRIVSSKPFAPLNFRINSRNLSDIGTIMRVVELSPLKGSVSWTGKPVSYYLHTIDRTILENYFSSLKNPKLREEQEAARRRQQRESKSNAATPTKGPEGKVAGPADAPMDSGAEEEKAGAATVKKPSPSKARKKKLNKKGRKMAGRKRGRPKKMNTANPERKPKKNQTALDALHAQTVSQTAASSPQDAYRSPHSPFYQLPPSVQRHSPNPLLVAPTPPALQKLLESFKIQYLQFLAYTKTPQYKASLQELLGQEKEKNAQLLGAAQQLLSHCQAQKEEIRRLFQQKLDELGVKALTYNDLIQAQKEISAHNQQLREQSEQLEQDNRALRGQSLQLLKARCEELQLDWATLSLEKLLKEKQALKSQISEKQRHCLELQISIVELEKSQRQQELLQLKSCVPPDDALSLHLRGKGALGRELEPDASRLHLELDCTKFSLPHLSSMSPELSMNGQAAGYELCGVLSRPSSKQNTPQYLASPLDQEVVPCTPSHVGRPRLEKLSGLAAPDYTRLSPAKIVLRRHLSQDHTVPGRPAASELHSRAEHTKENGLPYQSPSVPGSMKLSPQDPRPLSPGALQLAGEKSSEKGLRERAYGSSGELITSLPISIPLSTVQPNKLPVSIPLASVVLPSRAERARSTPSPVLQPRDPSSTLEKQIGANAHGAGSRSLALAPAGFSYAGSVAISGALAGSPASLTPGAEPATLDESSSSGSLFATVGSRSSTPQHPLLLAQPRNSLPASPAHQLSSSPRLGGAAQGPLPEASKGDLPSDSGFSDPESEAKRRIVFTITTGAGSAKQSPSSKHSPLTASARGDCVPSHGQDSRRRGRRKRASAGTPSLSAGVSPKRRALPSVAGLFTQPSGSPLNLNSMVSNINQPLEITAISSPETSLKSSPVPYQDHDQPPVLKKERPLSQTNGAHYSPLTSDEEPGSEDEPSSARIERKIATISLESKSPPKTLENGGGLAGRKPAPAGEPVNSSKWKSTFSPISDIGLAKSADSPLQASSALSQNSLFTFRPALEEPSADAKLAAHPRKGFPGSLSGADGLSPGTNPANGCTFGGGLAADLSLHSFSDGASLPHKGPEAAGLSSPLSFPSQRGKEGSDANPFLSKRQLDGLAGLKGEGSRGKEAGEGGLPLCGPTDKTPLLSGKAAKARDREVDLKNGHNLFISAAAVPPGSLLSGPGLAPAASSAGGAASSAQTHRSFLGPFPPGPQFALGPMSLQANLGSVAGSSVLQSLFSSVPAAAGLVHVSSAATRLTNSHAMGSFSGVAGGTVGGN
PRMT6, sequence (Q96LA8 whole entry, species assumed): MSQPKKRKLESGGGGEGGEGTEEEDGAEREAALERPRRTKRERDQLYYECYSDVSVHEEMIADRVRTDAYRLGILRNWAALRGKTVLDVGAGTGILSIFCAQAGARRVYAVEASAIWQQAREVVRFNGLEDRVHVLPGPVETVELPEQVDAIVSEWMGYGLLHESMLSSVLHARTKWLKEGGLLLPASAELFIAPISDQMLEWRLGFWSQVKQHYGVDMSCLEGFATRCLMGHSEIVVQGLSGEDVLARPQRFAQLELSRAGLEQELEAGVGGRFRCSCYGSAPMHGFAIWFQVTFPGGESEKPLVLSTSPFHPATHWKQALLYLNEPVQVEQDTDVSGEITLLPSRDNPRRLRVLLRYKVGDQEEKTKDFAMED
GLP, sequence (Q9H9B1 whole entry): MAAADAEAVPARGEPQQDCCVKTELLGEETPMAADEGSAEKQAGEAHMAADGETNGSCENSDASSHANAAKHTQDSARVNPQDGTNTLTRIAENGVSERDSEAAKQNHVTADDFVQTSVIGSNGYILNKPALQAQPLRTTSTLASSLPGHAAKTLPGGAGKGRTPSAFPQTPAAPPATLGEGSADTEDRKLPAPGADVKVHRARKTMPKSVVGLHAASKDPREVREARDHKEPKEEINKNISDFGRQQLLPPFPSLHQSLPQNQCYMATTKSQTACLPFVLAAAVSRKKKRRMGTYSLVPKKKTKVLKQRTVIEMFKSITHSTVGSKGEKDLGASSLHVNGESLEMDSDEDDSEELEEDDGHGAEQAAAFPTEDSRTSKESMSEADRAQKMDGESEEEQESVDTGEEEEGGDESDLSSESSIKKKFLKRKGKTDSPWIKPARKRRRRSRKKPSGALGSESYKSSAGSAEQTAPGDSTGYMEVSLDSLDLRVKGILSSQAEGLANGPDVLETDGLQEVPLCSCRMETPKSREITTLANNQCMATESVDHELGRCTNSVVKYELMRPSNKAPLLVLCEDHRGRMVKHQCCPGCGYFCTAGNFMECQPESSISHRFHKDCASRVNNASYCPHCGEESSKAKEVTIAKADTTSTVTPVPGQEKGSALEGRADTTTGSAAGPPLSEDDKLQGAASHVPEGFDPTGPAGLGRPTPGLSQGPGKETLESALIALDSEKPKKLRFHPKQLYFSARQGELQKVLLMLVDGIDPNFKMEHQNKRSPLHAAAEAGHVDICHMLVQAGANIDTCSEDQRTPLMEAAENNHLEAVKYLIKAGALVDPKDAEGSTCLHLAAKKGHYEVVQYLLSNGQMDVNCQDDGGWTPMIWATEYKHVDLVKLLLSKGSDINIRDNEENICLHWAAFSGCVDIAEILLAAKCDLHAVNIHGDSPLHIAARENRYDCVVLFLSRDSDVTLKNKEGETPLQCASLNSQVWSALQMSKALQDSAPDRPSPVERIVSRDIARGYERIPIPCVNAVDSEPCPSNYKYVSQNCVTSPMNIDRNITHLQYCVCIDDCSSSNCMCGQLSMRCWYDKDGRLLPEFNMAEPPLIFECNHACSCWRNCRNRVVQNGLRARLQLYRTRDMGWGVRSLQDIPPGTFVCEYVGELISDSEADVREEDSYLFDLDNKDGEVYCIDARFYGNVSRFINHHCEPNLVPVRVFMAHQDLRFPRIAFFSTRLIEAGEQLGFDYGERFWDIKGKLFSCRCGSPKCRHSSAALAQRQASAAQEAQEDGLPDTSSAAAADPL

CN1CC(C(=O)NCc2ccc3c(-c4cccc(C(N)=S)c4)cn(C4CCN(S(=O)(=O)C(F)(F)F)CC4)c3c2)C1 [AS-99]
GSEA: transcriptional programs driven by MLL fusion proteins and HOXA9 (MV4;11 cells; MV4;11): downregulation of transcriptional programs driven by MLL fusion proteins and HOXA9
number of downregulated genes (MV4;11 cells; [6]): 323
number of up-regulated genes (MV4;11 cells; [6]): 75
reduction in the bioluminescence signal versus vehicle ([1]; 30 mg/kg, i.p., q.d., 14 days): 65%
average radiance ([1]; day 6 after transplantation (start of treatment)): 6110 p/s/cm2/sr and 4700 p/s/cm2/sr and 4630 p/s/cm2/sr and 3760 p/s/cm2/sr and 10800 p/s/cm2/sr and 52500 p/s/cm2/sr and 8750 p/s/cm2/sr
average radiance ([1]; day 13 after transplantation): 199000 p/s/cm2/sr and 275000 p/s/cm2/sr and 78900 p/s/cm2/sr and 62500 p/s/cm2/sr and 231000 p/s/cm2/sr and 5680 p/s/cm2/sr and 144000 p/s/cm2/sr
average radiance ([1]; day 19 after transplantation (last day of treatment)): 1090000 p/s/cm2/sr (2×) and 1280000 p/s/cm2/sr and 524000 p/s/cm2/sr and 386000 p/s/cm2/sr and 8110 p/s/cm2/sr and 9660 p/s/cm2/sr
hCD45+ % in PB [2, 7]: 6.6% and 0.44% and 0.41% and 0.23% and 0.21% and 0.19%
hCD45+ % in spleen [2, 7]: 2.39% and 0.79% and 1.14% and 1.53% and 0.61% and 1.12% and 0.041%
level of leukemic blasts (human CD45+ cells) in peripheral blood and spleen ([2]; last day of treatment): significantly lower level
B cells [3, 8]: 42.2% and 44% and 40.1% and 47.1% and 47.9% and 45.4% and 35.4% and 37.2% and 39.4%
Myeloid cells [3, 8]: 16.7% and 17.1% (2×) and 23.3% and 12.6% and 14.8% and 9.84% and 22.2% and 17.7%
T cells [3, 8]: 27.1% and 24.3% and 22.5% and 18.4% and 27% and 27.8% and 32.5% and 30% and 29.5%
T-cells [3, 9]: unaffected
myeloid and B-cells [3, 9]: slightly changed (increased and reduced, respectively)
activity at 50 µM (DOT1L): 107%
% activity (DOT1L; 50 µM): 93.8212%
activity at 50 µM (GLP): 101%
% activity (GLP; 50 µM): 119.954%
activity at 50 µM (NSD1): 112%
% activity (NSD1; 50 µM): 113.763%
activity at 50 µM (NSD2): 92.1%
% activity (NSD2; 50 µM): 101.756%
activity at 50 µM (NSD3): 145%
% activity (NSD3; 50 µM): 128.837%
activity at 50 µM (PRMT1): 122%
% activity (PRMT1; 50 µM): 110.616%
activity at 50 µM (PRMT6): 105%
% activity (PRMT6; 50 µM): 107.332%
activity at 50 µM (SETD2): 101%
% activity (SETD2; 50 µM): 99.1882%
% activity (SMYD2): 79.4042% and 102.085%
activity at 50 µM (SUV39H2): 88.7%
% activity (SUV39H2; 50 µM): 78.6146%
inhibition in a panel of representative kinases [4]: does not inhibit strongly; also recorded: did not show substantial inhibition
effect on colony number or morphology [5]: no effect on colony number or morphology
colony counts ([5]; 3 uM): 70 and 68
colony counts ([5]; 6 uM): 86 and 64
